Reference: US4145296A, “Weather-durable aqueous fire retardant stabilized against gelation” (priority 1977, dated 1979)
Read-outs that look alike come from different tables or passages of the source.

What was measured:
[1] = for Viscosity in centipoises at 1 Hr. / Viscosity in centipoises at 4 Hrs. / Viscosity in centipoises at 6 Min. / Viscosity in centipoises at 21-28 Hrs. / Viscosity in centipoises at 0: additive at 3 percent weight; for gel inhibition / stabilization of aqueous dispersion (in words): conclusion from Tables II and III
[2] = pH of the aqueous dispersion; type: physicochemical; conditions: for Initial Dispersion pH: additive at 3 percent weight in Control dispersion; for pH (MEA At 3%): 3% MEA
[3] = thermodynamic; cited from earlier work

Row | SMILES | Viscosity in centipoises at 1 Hr. ([1]; 1 Hr.) | Viscosity in centipoises at 4 Hrs. ([1]; 4 Hrs.) | Viscosity in centipoises at 6 Min. ([1]; 6 Min.) | Viscosity in centipoises at 0 ([1]; time 0) | Initial Dispersion pH [2] | also measured
1 | N.N.O=C(O)O [Ammonium carbonate] |  |  |  |  |  | Viscosity in centipoises at 1 Hr. ([1]; 1 Hr., listed as Ammonium carbonate (20%)): 850 centipoises; Viscosity in centipoises at 1 Hr. ([1]; 1 Hr., listed as Ammonium carbonate (100%)): 525 centipoises; Viscosity in centipoises at 4 Hrs. ([1]; 4 Hrs., listed as Ammonium carbonate (20%)): 1900 centipoises; Viscosity in centipoises at 4 Hrs. ([1]; 4 Hrs., listed as Ammonium carbonate (100%)): 800 centipoises; Viscosity in centipoises at 6 Min. ([1]; 6 Min., listed as Ammonium carbonate (20%)): 575 centipoises; Viscosity in centipoises at 6 Min. ([1]; 6 Min., listed as Ammonium carbonate (100%)): 350 centipoises; Viscosity in centipoises at 21-28 Hrs. ([1]; 21-28 Hrs.): gel; Viscosity in centipoises at 0 ([1]; time 0, listed as Ammonium carbonate (20%)): 475 centipoises; Viscosity in centipoises at 0 ([1]; time 0, listed as Ammonium carbonate (100%)): 300 centipoises; longer term storage of the aqueous dispersion (in words) ([1]; longer term storage): evidence of polymerization and gas evolution
2 | N [Ammonium hydroxide] | 550 centipoises | 575 centipoises | 400 centipoises | 400 centipoises |  | Viscosity in centipoises at 21-28 Hrs. ([1]; 21-28 Hrs.): 750 centipoises; gel inhibition / stabilization of aqueous dispersion (in words) [1]: good stabilization results
3 | OCCNCCO [Diethanolamine] | 750 centipoises | 875 centipoises |  | 600 centipoises | 9.0 | 
4 | CN(C)C=O [Dimethyl formamide] | 900 centipoises | 3100 centipoises | 500 centipoises | 475 centipoises |  | 
5 | O.O.O.O.O.O.O.O=P([O-])([O-])O.[Na+].[Na+] [Disodium phosphate . 7H2 O] | 975 centipoises | 2100 centipoises | 600 centipoises | 500 centipoises | 7.0 | 
6 | O=P([O-])([O-])O.[Na+].[Na+] [Disodium phosphate anhydrous] | 875 centipoises | 1900 centipoises | 550 centipoises | 425 centipoises | 7.2 | 
7 | NCCN [Ethylenediamine, diaminoethane] | 525 centipoises | 500 centipoises | 500 centipoises | 450 centipoises |  | pKa at 25° C. [3]: greater than 8.0; gel inhibition / stabilization of aqueous dispersion (in words) [1]: superior gel inhibitors
8 | C1N2CN3CN1CN(C2)C3 [Hexamethylene tetramine] | 950 centipoises | 2000 centipoises | 550 centipoises | 500 centipoises | 6.7 | 
9 | NCCO [Monoethanolamine, 2-aminoethanol] |  |  |  |  |  | pH (MEA At 3%) ([2]; 1 Hr.): 9.1; pH (MEA At 3%) ([2]; 4 Hrs.): 9.1; pH (MEA At 3%) ([2]; 6 Min.): 9.2; pH (MEA At 3%) ([2]; 21-28 Hrs.): 8.7; pH (MEA At 3%) ([2]; time 0): 9.3; Viscosity with Monoethanolamine (MEA) ([1]; 1.5% MEA in Control dispersion, time 0): 610 Centipoises; Viscosity with Monoethanolamine (MEA) ([1]; 1.5% MEA, 1 Hr.): 760 Centipoises; Viscosity with Monoethanolamine (MEA) ([1]; 1.5% MEA, 4 Hrs.): 1125 Centipoises; Viscosity with Monoethanolamine (MEA) ([1]; 1.5% MEA, 6 Min.): 625 Centipoises; Viscosity with Monoethanolamine (MEA) ([1]; 2% MEA in Control dispersion, time 0): 650 Centipoises; Viscosity with Monoethanolamine (MEA) ([1]; 2% MEA, 1 Hr.): 750 Centipoises; Viscosity with Monoethanolamine (MEA) ([1]; 2% MEA, 4 Hrs.): 925 Centipoises; Viscosity with Monoethanolamine (MEA) ([1]; 2% MEA, 6 Min.): 700 Centipoises; Viscosity with Monoethanolamine (MEA) ([1]; 3% MEA in Control dispersion, time 0): 625 Centipoises; Viscosity with Monoethanolamine (MEA) ([1]; 3% MEA, 1 Hr.): 700 Centipoises; Viscosity with Monoethanolamine (MEA) ([1]; 3% MEA, 4 Hrs.): 750 Centipoises; Viscosity with Monoethanolamine (MEA) ([1]; 3% MEA, 6 Min.): 700 Centipoises; Viscosity with Monoethanolamine (MEA) ([1]; 3% MEA, 21-28 Hrs.): 1150 Centipoises
10 | C1COCCN1 [Morpholine, tetrahydro-p-oxazine] | 725 centipoises | 800 centipoises | 525 centipoises | 550 centipoises | 8.7 | Viscosity in centipoises at 21-28 Hrs. ([1]; 21-28 Hrs.): 2700 centipoises
11 | CCN1CCOCC1 [N-Ethylmorpholine] |  |  |  |  |  | pKa at 25° C. [3]: 7.67
12 | C1CCNCC1 [Piperidine] | 725 centipoises | 800 centipoises | 650 centipoises | 600 centipoises | 9.9 | 
13 | [K+].[OH-] [Potassium hydroxide] |  |  |  |  |  | Viscosity in centipoises at 21-28 Hrs. ([1]; 21-28 Hrs.): 1450 centipoises
14 | O=P(O)(O)OP(=O)(O)O [Tetrasodium pyrophosphate . 10H2 O] | 900 centipoises | 1300 centipoises | 600 centipoises | 500 centipoises |  | 
15 | CC(O)CN(CC(C)O)CC(C)O (stereo not shown) [Triisopropanolamine] |  |  |  |  |  | pKa at 25° C. [3]: 7.86
16 | O.O.O.O.O.O.O.O.O.O.O.O.O=P([O-])([O-])[O-].[Na+].[Na+].[Na+] [Trisodium phosphate . 12H2 O] | 850 centipoises | 1500 centipoises | 600 centipoises | 450 centipoises | 7.7 | 
17 | NC(N)=O [Urea] | 800 centipoises | 1800 centipoises | 650 centipoises | 600 centipoises | 6.6 | 
